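Growth conditions: 96-well plates. Treatment: test compound, 48 hours, 5 concentrations. Analysis: linear interpolation between bracketing concentrations; unreached endpoints set to highest concentration. GI50: concentration for 50% inhibition of growth. The concentration for full growth arrest is given as TGI.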
Columns and labels:
Assay in all cases: growth of human tumour cells (NCI), 48 h
HT29 colon = system: HT29 colon
KM12 colon = system: KM12 colon
HS 578T breast = system: HS 578T breast
PC-3 prostate = system: PC-3 prostate
HCC-2998 colon = system: HCC-2998 colon
MALME-3M melanoma = system: MALME-3M melanoma
SNB-19 CNS = system: SNB-19 CNS
HOP-92 NSCLC = system: HOP-92 NSCLC
U251 CNS = system: U251 CNS
NCI-H226 lung = system: NCI-H226 lung
BT-549 breast = system: BT-549 breast
SW-620 colon = system: SW-620 colon
OVCAR-8 ovarian = system: OVCAR-8 ovarian
MDA-N = system: MDA-N
RPMI-8226 leukemia = system: RPMI-8226 leukemia
LOX IMVI melanoma = system: LOX IMVI melanoma

SMILES	TGI (HT29 colon)	TGI (KM12 colon)	TGI (HS 578T breast)	TGI (PC-3 prostate)	TGI (HCC-2998 colon)	TGI (MALME-3M melanoma)	TGI (SNB-19 CNS)	TGI (HOP-92 NSCLC)	TGI (U251 CNS)	TGI (NCI-H226 lung)	TGI (BT-549 breast)	TGI (SW-620 colon)	TGI (OVCAR-8 ovarian)	TGI (MDA-N)	TGI (RPMI-8226 leukemia)	TGI (LOX IMVI melanoma)	GI50 (HT29 colon)
c1csc(-c2cc(-c3ccsc3)c(-c3cccs3)s2)c1	> 100 µM	> 100 µM	> 100 µM	> 100 µM	> 100 µM	> 100 µM	> 100 µM	> 100 µM	> 100 µM	> 100 µM	> 100 µM	> 100 µM	> 100 µM	> 100 µM			
Cn1cc(C=C(C#N)C#N)c(=O)n(C)c1=O	> 100 µM	> 100 µM	> 100 µM	> 100 µM			> 100 µM	> 100 µM	> 100 µM	> 100 µM	> 100 µM	> 100 µM	> 100 µM	> 100 µM	> 100 µM	> 100 µM	
Cc1nnc2nc(-c3ccc(Cl)cc3Cl)cc(-c3ccc(Cl)cc3)n12	42.3 µM	> 100 µM	> 100 µM	> 100 µM		> 100 µM	> 100 µM	37.7 µM	> 100 µM	> 100 µM	> 100 µM	> 100 µM	> 100 µM	> 100 µM	> 100 µM	> 100 µM	
CN(C)c1ncc(-c2c[nH]c3ccccc23)nc1-c1c[nH]c2ccccc12	4.93 µM	5.3 µM	9.5 µM	13 µM	4.1 µM		14.8 µM	8.33 µM	11.4 µM		49.1 µM	11.8 µM	23 µM	4.54 µM	> 100 µM	5.33 µM	
O=C(/C=C/c1ccc(O)c(O)c1)Oc1ccccc1	48.8 µM	40.4 µM	49 µM	> 76.9 µM	> 58.8 µM		> 80.9 µM	47.6 µM	48.3 µM	> 100 µM	53.6 µM	> 100 µM	38.2 µM	> 81 µM	45 µM	21 µM	
O=c1oc2ccccc2c(O)c1C(c1ccc([N+](=O)[O-])cc1)c1c(O)c2ccccc2oc1=O	> 100 µM	> 100 µM	> 100 µM	> 100 µM		> 100 µM	> 100 µM	> 100 µM	> 100 µM	> 100 µM	> 100 µM	> 100 µM	> 100 µM	> 100 µM		> 100 µM	
S=c1scc(-c2ccc(Cl)cc2)n1OC1CCCC1	> 100 µM	> 100 µM	> 100 µM	> 100 µM	71.2 µM	> 100 µM	> 100 µM	> 100 µM	39.7 µM		94.7 µM	> 100 µM	> 100 µM	> 100 µM		> 100 µM	
COc1cccc2c1[C@H](OC)[C@]13O[C@@]1(C2=O)[C@H](O)[C@H](C)[C@@](O)(C(=O)[C@@H]1O[C@H]1C)[C@@H]3O	1.11 µM	> 36.5 µM	0.618 µM			0.523 µM		0.723 µM	3.1 µM	1.2 µM	1.28 µM		0.61 µM	0.768 µM	0.411 µM	0.648 µM	0.251 µM
